Data from patent US12016901B2, “Tissue catalyzed growth of polymer as epithelial linings for therapy” (priority 2019, dated 2024).

How the values were obtained:
[1] = in vivo; conditions: pig
Procedure: In vivo evolution of pharmacokinetics of the praziquantel-tissue-accelerated polymerization. Pigs were sedated, intubated, and maintained with isoflurane as described above. The gastric fluid was removed from the stomach before administration. […] Praziquantel without the tissue-accelerated polymerization was used as the control. Blood samples were collected from a marginal ear vein at designated time points. Serum samples were separated from blood by centrifugation (1800 G×10 min at 4° C.) and were stored at −80° C. for further analysis. […] Serum praziquantel concentration assessment. Praziquantel concentrations in serum from in vivo experiments were analyzed using Ultra-Performance Liquid Chromatography-Tandem Mass Spectrometry (UPLC-MS/MS). Analysis was performed on a Waters ACQUITY UPLC-I-Class System aligned with a Waters Xevo TQ-S mass spectrometer (Waters Corporation, Milford Mass.). Liquid chromatographic separation was performed on an Acquity UPLC BEH C18 (50 mm×2.1 mm, 1.7-μm particle size) column at 50° C. The mobile phase consisted of aqueous 0.1% formic acid, 10 mM ammonium formate solution (Mobile Phase A) and acetonitrile: 10 mM ammonium formate, 0.1% formic acid solution (95:5 v/v) (Mobile Phase B). […] The composition of 0% Mobile Phase A and 100% Mobile Phase B was held constant until 3.50 minutes. The composition returned to 80% Mobile Phase A at 3.51 minutes and was held at this composition until completion of the run, ending at 5.00 minutes, where it remained for column equilibration. The total run time was 5.00 minutes. […] Sample introduction and ionization was by electrospray ionization (ESI) in the positive ionization mode. Waters MassLynx 4.1 software was used for data acquisition and analysis. Stock solutions of praziquantel were prepared in methanol at a concentration of 500 μg/ml. […] Samples were vortexed, sonicated for 10 minutes, and centrifuged for 10 minutes at 13,000 rpm. 200 μl of supernatant was pipetted into a 96-well plate containing 200 μl of water. Finally, 1.00 μl was injected onto the UPLC-ESI-MS system for analysis.

[2] = target: T1, catalase (Sus scrofa, UniProt O62839); experiment: In vitro inhibition of catalase activity in tissue lysates; type: biochemical, pig; conditions: small intestinal lysates, inhibitor 20 mM, 6 hours, 4° C.
T1 construct: from tissue; host or cells: porcine small intestinal epithelium, homogenized in RIPA buffer (tissue lysate)
T1 sequence (O62839 2-527 limits assumed): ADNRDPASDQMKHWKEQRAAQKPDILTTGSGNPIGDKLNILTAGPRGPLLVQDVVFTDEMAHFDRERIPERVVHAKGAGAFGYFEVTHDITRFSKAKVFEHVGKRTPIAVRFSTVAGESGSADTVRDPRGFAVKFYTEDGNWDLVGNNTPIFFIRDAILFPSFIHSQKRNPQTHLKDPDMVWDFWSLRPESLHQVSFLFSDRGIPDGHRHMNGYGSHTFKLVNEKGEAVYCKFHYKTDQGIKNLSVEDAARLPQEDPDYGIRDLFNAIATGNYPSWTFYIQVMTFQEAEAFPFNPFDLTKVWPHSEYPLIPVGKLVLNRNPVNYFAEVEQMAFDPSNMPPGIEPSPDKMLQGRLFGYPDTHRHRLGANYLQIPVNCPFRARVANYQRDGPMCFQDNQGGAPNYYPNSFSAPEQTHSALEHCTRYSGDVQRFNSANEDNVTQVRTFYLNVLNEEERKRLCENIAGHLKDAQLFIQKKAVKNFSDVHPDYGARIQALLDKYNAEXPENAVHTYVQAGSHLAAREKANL
Procedure: Tissue lysate preparation. Epithelial tissues of the porcine gastrointestinal tract were dissected on ice. The outer mucus layers were removed by aspiration, and then the rinsed tissues [(with 1× phosphate-buffered saline (PBS)] were frozen by liquid nitrogen. Tissues (10 mg) were incubated in the ice-cold lysis buffer (600 μl, RIPA buffer mixed with protease and phosphatase inhibitor cocktail, Sigma-Aldrich) and homogenized to form tissue lysates. The total protein concentrations of tissue lysates were measured by using the bicinchoninic acid (BCA) assay.
In vitro inhibition of catalase activity. 3-amino-1,2,4-triazole was used as the inhibitor. Tissue lysates (10 mg/ml, 100 μl) were incubated in the inhibitor solution (20 mM) for 6 hours at 4° C.

AUC ([1]; Yorkshire) | concentration at 6 h ([1]; Yorkshire) | elimination phase ([1]; Yorkshire) | half-life ([1]; Yorkshire) | serum praziquantel concentration at 24 hours [1] | Structure (SMILES) | decrease of catalytic capacity of lysates [2]
222 ng·h/mL | 15.1 ng/mL | 2 to 6 h | 1.3 h | no drug was detected | O=C(C1CCCCC1)N1CC(=O)N2CCc3ccccc3C2C1 (stereo not drawn) [praziquantel control, Praziquantel] | 
 |  |  |  |  | Nc1nc[nH]n1 [catalase-specific inhibitor, 3-amino-1,2,4-triazole] | around 80%
